Literature values, collected in patent US8445527B2, “Organic compounds and their uses” (Novartis AG, priority 2006, dated 2013).

System: HCV
Details: ribavirin alone

For `NC(=O)c1ncn([C@@H]2O[C@H](CO)[C@@H](O)[C@H]2O)n1` [Ribavirin, 1-β-D-ribofuranosyl-1-1,2,4-triazole-3-caroxamide], the “patients in whom serum amino transferase levels are reduced to normal” value is given as 40% and the “serum levels of HCV-RNA” value is given as “does not lower”.
